We go through five molecules from ChEMBL document CHEMBL1144799, “Synthesis, antiviral activity, and conformational studies of a P3 aza-peptide analog of a potent macrocyclic tripeptide HCV protease inhibitor” (Bioorg Med Chem Lett, 2008).

Experiment [1] is described as follows: Inhibition of HCV NS3-4A protease. Further details: species or system Hepacivirus hominis.
A further experiment concerns Hepatitis C virus. The experiment is described as follows: Antiviral activity against HCV replicon. The format is functional, organism-based, Hepacivirus hominis. For orientation: A replicon is a self-replicating genome or part of one, used to study replication in cells.

On to `COc1ccc2c(O[C@@H]3C[C@H]4C(=O)N[C@]5(C(=O)O)C[C@H]5/C=C\CCCCC[C@H](NC(=O)OC5CCCC5)C(=O)N4C3)cc(-c3csc(NC(C)C)n3)nc2c1` [CILUPREVIR], for which, in experiment [1], the IC50 – broadly, the point on the concentration scale where inhibition reaches its midpoint – came to 0.003 µM. Moreover, the EC50 (in general, the concentration giving half of the maximal effect) with Hepatitis C virus was 0.0012 µM.

`C=C[C@@H]1C[C@]1(NC(=O)[C@@H]1C[C@@H](Oc2cc(-c3ccccc3)nc3cc(OC)ccc23)CN1C(=O)N(CC(C)C)NC(=O)OC(C)(C)C)C(=O)O`: the half-inhibitory concentration (IC50) in experiment [1] worked out at 2.1 µM. The molecule further came in with a concentration for a half-maximal effect (EC50) in the experiment on Hepatitis C virus of 53 µM.

In the case of `COc1ccc2c(O[C@@H]3C[C@H]4C(=O)N[C@]5(C(=O)O)C[C@H]5/C=C\CCCCCN(NC(=O)OC(C)(C)C)C(=O)N4C3)cc(-c3ccccc3)nc2c1`, the IC50 in experiment [1] stood at 3.8 µM. This molecule also gave an EC50 in the experiment on Hepatitis C virus of 31 µM.

As for `C=C[C@@H]1C[C@]1(NC(=O)[C@@H]1C[C@@H](Oc2cc(-c3ccccc3)nc3cc(OC)ccc23)CN1C(=O)N(NC(=O)OC(C)(C)C)C1CCCCC1)C(=O)O`, half-maximal inhibition in experiment [1] (IC50) was put at 3.5 µM.

In experiment [1], `COc1ccc2c(O[C@@H]3C[C@H]4C(=O)N[C@]5(C(=O)O)C[C@H]5/C=C\CCCCC[C@H](NC(=O)OC(C)(C)C)C(=O)N4C3)cc(-c3ccccc3)nc2c1` had an IC50 of 0.011 µM. Also, the EC50 in the experiment on Hepatitis C virus was determined as 0.077 µM.
